# Measurements as given in patent US20230192787A1, “DIAGNOSIS METHODS, DIAGNOSTIC AGENTS, AND THERAPEUTIC AGENTS AGAINST ALZHEIMER'S DISEASE AND FRONTOTEMPORAL LOBAR DEGENERATION, AND SCREENING METHODS FOR THESE AGENTS” (National University Corporation Tokyo Medical and Dental …, priority 2013, published 2023).
# “Also recorded” adds a separate entry of the source.
# Columns and labels:
# PGRN-KI mice [1] = assay: Immunohistological analysis of protein aggregation in brains of PGRN-KI mice; assay type: in vivo, mouse
# Source text: To be more specific, as the first hypothesis, the aforementioned therapeutic effect by suppressing b-raf phosphorylation was presumably based on the elimination of protein aggregation in the nerve by vemurafenib or thalidomide. Accordingly, analyzed was the recovery effect of vemurafenib or thalidomide on the protein aggregation in the cerebral cortexes of the PGRN-KI mice.
# PGRN-KI mice [2] = assay: Morris water maze test in FTLD model mice; assay type: in vivo, mouse; conditions: provided every day over 6 weeks from 6 weeks old
# Experimental: In this test, the mice received a 60-second trial four times a day for 5 days. The time until each mouse reached the platform was measured.
# Furthermore, the PGRN-KI mice were also subjected to six behavioral tests as in the case of Alzheimer's disease model mice described above. As a result, abnormalities regarding anxiety memory and anxiety-related memory were not observed in the open-field test, the light-dark box test, and the elevated plus maze test. […] Moreover, in the Morris water maze test, a statistically significant decrease was observed from the age of 3 months in the time during which the mice stayed in the target region or the number of times the mice passed through the target. […] Note that, in the Morris water maze test using the PGRN-KI mice, the mice received the 60-second trial four times a day for 5 days to learn the position of the platform (target region). […]
# To be more specific, in accordance with the protocol shown in FIG. 21, a b-raf specific inhibitor vemurafenib or PBS was provided to the 6-week-old PGRN-KI mice every day over 6 weeks. Then, the behaviors of these mice were evaluated in the Morris water maze test and the fear-conditioning test. […]
# Meanwhile, the therapeutic effect of thalidomide was also tested. […] The behaviors of these mice were evaluated by the above two tests. […]
# [3] = system: phosphorylated PKC protein; assay: Western blot of cerebral cortexes of treated PGRN-KI mice, phosphorylated PKC; assay type: in vivo, mouse
# Experimental: (§1) FIG. 27 is a figure for illustrating the result of western blot analysis on the cerebral cortexes of wild-type mice (WT) and the PGRN-KI mice to which vemurafenib was administered. […] “Anti-p-Braf” and “Anti-p-PKC” respectively show the analysis result of phosphorylated b-RAF protein and the analysis result of phosphorylated PKC protein. […] The significant differences were evaluated based on the P-value calculated by Student's independent t-test.
# (§2) FIG. 28 is a figure for illustrating the result of western blot analysis on the cerebral cortexes of the PGRN-KI mice to which thalidomide was administered. […] “Anti-p-Braf”, “Anti-Braf”, and “Anti-p-PKC” respectively show the analysis result of phosphorylated b-raf protein, the analysis result of b-raf protein, and the analysis result of phosphorylated PKC protein. […] Further, in the figure, one asterisk indicates p<0.05 in Student's independent t-test, and two asterisks indicate p<0.01 in Student's independent t-test.
# (§3) Moreover, the cerebral cortexes of the PGRN-KI mice treated with the agent were analyzed by western blot.
# [4] = system: phosphorylated b-RAF protein; assay: Western blot of cerebral cortexes of treated PGRN-KI mice, phosphorylated b-RAF; assay type: in vivo, mouse
# Experimental: as §1, §2, §3
# PGRN-KI mice [5] = assay: Fear-conditioning test in FTLD model mice; assay type: in vivo, mouse; conditions: provided every day over 6 weeks from 6 weeks old
# Experimental: In this test, first, a mouse received a sound stimulus (65-dB white noise, 30 seconds) together with an electrical stimulus (0.4 mA, 2 seconds) on the foot. Then, after 24 hours, the mouse was measured for the frequency of the freezing reaction when the mouse received a sound stimulus but no electrical stimulus in the same chamber.
# To be more specific, in accordance with the protocol shown in FIG. 21, a b-raf specific inhibitor vemurafenib or PBS was provided to the 6-week-old PGRN-KI mice every day over 6 weeks. Then, the behaviors of these mice were evaluated in the Morris water maze test and the fear-conditioning test. FIGS. 22 and 23 show the obtained result.
# Meanwhile, the therapeutic effect of thalidomide was also tested. Note that thalidomide is known to suppress the TNF signal transduction pathway. Concretely, in accordance with the protocol shown in FIG. 24, thalidomide was administered to the PGRN-KI mice by peritoneal cavity injection every day for the same period as that in the protocol using the b-raf inhibitor. The behaviors of these mice were evaluated by the above two tests. FIGS. 25 and 26 show the obtained result.
# 5×FAD mice = assay: In vivo two-photon imaging of dendritic spines after administering kinase inhibitors/activator; design: species or system mouse; conditions: 5×FAD mice (12 weeks old); for spine densities by morphological type (thin, mushroom, stubby) / spine dynamics: spine formation and stability: 36 hours and 60 hours after administration; for dendritic spine density (total spine density): layer 1 of retrosplenial cortex, 36 hours and 60 hours after administration by osmotic pump
# Experimental: (§4) Two-photon imaging of dendritic spine was performed using a laser-scanning microscope system FV1000MPE2 (manufactured by Olympus Corporation) equipped with an upright microscope (BX61WI, manufactured by Olympus Corporation, a water-immersion objective lens (XLPlanN25xW; numerical aperture, 1.05), and a pulsed laser (MaiTai HP DeepSee, manufactured by Spectra Physics). In the imaging, EGFP was excited by light at a wavelength of 890 nm, and scanned in a range of 500 to 550 nm. Moreover, the scanned region for three-dimensional imaging was 100×100 μm (1 μm Z-axis steps, 1024×1024 pixels).
# (§5) Additionally, two weeks before the imaging, adeno-associated virus 1 (AAV1)-EGFP with the synapsin 1 promoter (titer: 1×10^10 vector genomes/mL, 1 μL) was injected into the retrosplenial cortex (−2.0 mm anteroposterior and 0.6 mm mediolateral from the bregma, depth 1 mm) of mice under anesthesia with 2.5% isoflurane. Then, two weeks thereafter, the dendritic spines of the first layer (layer 1) of the cerebral cortex were observed through a thinned skull window according to the method described in “Yang, G. et al., Nat. Protoc., 2010, Vol. 5, pp. 201 to 208.”
# Moreover, when the influence of kinase inhibition on dendritic spines was imaged, Alzet micro-osmotic pumps (model: 1003D, manufactured by Durect Corporation) filled with PBS/1% DMSO containing 1 μM Go6976 (manufactured by Calbiochem), 0.4 mM KN-93 (manufactured by Cayman Chemical), or 1 μM MLR1023 (manufactured by Glixx Laboratories) were implanted into mice under anesthesia with O2/isoflurane. […] Note that, regarding the PKC inhibitor Go6976, see Yan, Z. et al., Proc. Natl. Acad. Sci. U.S.A., 1999, Vol. 96, pp. 11607 to 11612. Regarding the CaMK inhibitor KN-93, see Galan, A. et al., Pain, 2004, Vol. 112, pp. 315 to 323. Regarding the Lyn activator MLR1023, see Saporito, M. S. et al., J. Pharmacol. Exp. Ther., 2012, Vol. 342, pp. 15 to 22.
# In addition, the spine density, spine length, spine maximum diameter, and spine neck minimum diameter were measured from the obtained images using image analysis software IMARIS 7.2.2 (manufactured by Bitplane).
# More concretely, the effect of the kinases on the synaptic pathology in the 5×FAD mice was analyzed by administering inhibitors and so forth against these kinases into the subarachnoid spaces of the mice. FIGS. 4 to 9 show the obtained result.
# PGRN-KI mice [6] = assay: In vivo two-photon imaging of synaptic spines in retrosplenial cortex of PGRN-KI mice (recovery experiment); design: species or system mouse
# Experimental: as §4, §5
# A pharmacological recovery experiment was conducted on the PGRN-KI mice as follows. […]
# In addition, analyzed was whether or not vemurafenib and/or tau knockdown enabled recovery of spine related phenotype. […]
smiles,measurement,setting,value
O=C1CCC(N2C(=O)c3ccccc3C2=O)C(=O)N1 (centres unmarked) [thalidomide],FUS and p62 inclusion (IB),PGRN-KI mice [1],no significant effect
same,transition of TDP43 into the cytoplasm,PGRN-KI mice [1],no large change was observed
same,scores in the Morris water maze test,PGRN-KI mice [2],beneficial effects were finally verified
same,PKC phosphorylation,[3],the PKC phosphorylation was not suppressed
same,b-raf phosphorylation,[4],the b-raf phosphorylation was suppressing
same,scores in the fear-conditioning test,PGRN-KI mice [5],beneficial effects were finally verified
Cc1cccc(Oc2cnc(O)nc2)c1 [MLR1023],"spine densities by morphological type (thin, mushroom, stubby)",5×FAD mice,the decreases were recovered
same,spine dynamics: spine formation and stability,5×FAD mice,had a therapeutic effect on the spine formation and stability
same,dendritic spine density (total spine density),5×FAD mice,recovered the decrease of spines
COc1ccc(S(=O)(=O)N(CCO)c2ccccc2CN(C)C/C=C/c2ccc(Cl)cc2)cc1 [KN-93],"spine densities by morphological type (thin, mushroom, stubby)",5×FAD mice,the decreases were recovered
same,spine dynamics: spine formation and stability,5×FAD mice,had a therapeutic effect on the spine formation and stability
same,dendritic spine density (total spine density),5×FAD mice,recovered the decrease of spines
"CCCS(=O)(=O)Nc1ccc(F)c(C(=O)c2c[nH]c3ncc(-c4ccc(Cl)cc4)cc23)c1F [vemurafenib, N-{3-[5-(4-chlorophenyl)-1H-pyrrolo[2,3-b]pyridine-3-carbonyl]-2,4-difluorophenyl}propane-1-sulfonamide]",FUS and p62 inclusion (IB),PGRN-KI mice [1],no significant effect
same,transition of TDP43 into the cytoplasm,PGRN-KI mice [1],no large change was observed
same,scores in the Morris water maze test,PGRN-KI mice [2],remarkably recovered the scores in the two tests
same,number of spines,"PGRN-KI mice [6]; PGRN-KI mice (12 weeks old), vemurafenib 1.7 μM by osmotic pump for 3 days, shRNA imaged on Day 5",recovered the number of spines; also recorded: had a recovery effect on the number of spines
same,spine volume,"PGRN-KI mice [6]; PGRN-KI mice, trend, not a statistically significant difference",decreased the spine volume
same,PKC phosphorylation,[3],also suppressed the PKC phosphorylation
same,b-raf phosphorylation,[4],suppressed the b-raf phosphorylation
same,scores in the fear-conditioning test,PGRN-KI mice [5],remarkably recovered the scores in the two tests
Cn1c2ccccc2c2c3c(c4c5ccccc5n(CCC#N)c4c21)CNC3=O [Go6976],"spine densities by morphological type (thin, mushroom, stubby)",5×FAD mice,the decreases were recovered; also recorded: increased
same,spine dynamics: spine formation and stability,5×FAD mice,enhanced the spine formation and stability
same,dendritic spine density (total spine density),5×FAD mice,recovered the decrease of spines; also recorded: increased the total spine density
